Measurements from the supplement of paper PMC6045584.
± gives the standard deviation of the averaged measurements.

What was measured:
[1] = compound: CCCS(=O)(=O)Nc1ccc(F)c(C(=O)c2c[nH]c3ncc(Cl)cc23)c1F [PLX-4720]; assay: surviving fraction relative to DMSO-only wells; higher = less growth inhibition; settings: exposure time: 5 days
Outline: (§1)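 Log-phase tumour cell lines were seeded at 250–500 cells per well in 384-well plates. After 24 hours they were exposed continuously for five days to inhibitors at 0.5, 1, 5, 10, 50, 100, 500 and 1000 nM. Viability was read by CellTiter-Glo luminescence after 10 minutes at room temperature, and surviving fraction is luminescence normalised to the median of DMSO-only wells. Each line was screened three times and kept only if replicate Pearson r >0.7 and median Z' >0.3.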

[2] = compound: COc1cc(CCc2cc(NC(=O)c3ccc(N4CC(C)NC(C)C4)cc3)n[nH]2)cc(OC)c1 [AZD4547]; assay: as above; settings: exposure time: 5 days
Outline: as §1

Test System | surviving fraction ([1]; 0.5 nM) | surviving fraction ([1]; 1 nM) | surviving fraction ([1]; 5 nM) | surviving fraction ([1]; 10 nM) | surviving fraction ([1]; 50 nM) | surviving fraction ([1]; 100 nM) | surviving fraction ([1]; 500 nM) | surviving fraction ([1]; 1000 nM) | surviving fraction ([2]; 0.5 nM) | surviving fraction ([2]; 1 nM) | surviving fraction ([2]; 5 nM) | surviving fraction ([2]; 10 nM) | surviving fraction ([2]; 50 nM) | surviving fraction ([2]; 100 nM) | surviving fraction ([2]; 500 nM) | surviving fraction ([2]; 1000 nM)
KPD BONE | 0.917 ± 0.082 | 0.916 ± 0.017 | 0.973 ± 0.024 | 0.982 ± 0.011 | 1.01 ± 0.075 | 0.988 ± 0.075 | 0.932 ± 0.085 | 0.9813 ± 0.0098 | 0.961 ± 0.049 | 0.945 ± 0.078 | 0.991 ± 0.094 | 0.984 ± 0.024 | 1 ± 0.067 | 0.956 ± 0.088 | 0.804 ± 0.039 | 0.642 ± 0.036
NY BONE | 0.905 ± 0.038 | 0.909 ± 0.026 | 0.933 ± 0.016 | 0.959 ± 0.02 | 0.949 ± 0.014 | 0.9663 ± 0.004 | 0.932 ± 0.0095 | 0.9273 ± 0.0065 | 0.984 ± 0.052 | 1.03 ± 0.039 | 1.03 ± 0.049 | 0.894 ± 0.02 | 0.466 ± 0.0057 | 0.394 ± 0.019 | 0.359 ± 0.023 | 0.315 ± 0.026
MDAMB468 BREAST | 0.827 ± 0.026 | 0.828 ± 0.0072 | 0.895 ± 0.028 | 0.928 ± 0.024 | 1.04 ± 0.03 | 1.08 ± 0.037 | 0.961 ± 0.045 | 0.924 ± 0.025 | 1.04 ± 0.11 | 1.02 ± 0.055 | 1.13 ± 0.057 | 1.14 ± 0.062 | 1.02 ± 0.09 | 1.16 ± 0.096 | 1.06 ± 0.019 | 1.14 ± 0.042
BT549 BREAST | 0.855 ± 0.11 | 0.839 ± 0.092 | 0.857 ± 0.092 | 0.902 ± 0.074 | 1.09 ± 0.036 | 1.29 ± 0.061 | 1.19 ± 0.03 | 1.05 ± 0.15 | 1.16 ± 0.2 | 1.06 ± 0.055 | 1.16 ± 0.18 | 1.19 ± 0.13 | 1.04 ± 0.12 | 0.95 ± 0.096 | 0.968 ± 0.094 | 0.861 ± 0.052
SCC90 HEADNECK | 0.874 ± 0.13 | 0.819 ± 0.034 | 0.955 ± 0.011 | 0.965 ± 0.17 | 1.18 ± 0.12 | 1.25 ± 0.077 | 0.64 ± 0.1 | 0.539 ± 0.053 | 1.07 ± 0.095 | 1.06 ± 0.11 | 1.04 ± 0.17 | 1.09 ± 0.14 | 1.08 ± 0.038 | 1.15 ± 0.055 | 1.04 ± 0.043 | 1.1 ± 0.11
U2OS BONE | 0.914 ± 0.029 | 0.9627 ± 0.0058 | 0.949 ± 0.007 | 0.978 ± 0.035 | 1.06 ± 0.054 | 1.08 ± 0.059 | 1.07 ± 0.026 | 1.1 ± 0.039 | 0.992 ± 0.042 | 1.024 ± 0.0069 | 0.95 ± 0.015 | 0.901 ± 0.024 | 0.777 ± 0.013 | 0.759 ± 0.029 | 0.711 ± 0.012 | 0.648 ± 0.0075
SUM149.B1*.S BREAST | 0.392 ± 0.028 | 0.793 ± 0.046 | 0.787 ± 0.036 | 0.8912 ± 0.0055 | 0.517 ± 0.056 | 0.968 ± 0.042 | 0.863 ± 0.038 | 1.02 ± 0.015 | 1.05 ± 0.013 | 1.083 ± 0.01 | 1.09 ± 0.04 | 1.09 ± 0.035 | 1.05 ± 0.083 | 1.07 ± 0.018 | 1.07 ± 0.054 | 1.07 ± 0.077
MG63 BONE | 0.875 ± 0.01 | 0.884 ± 0.025 | 0.926 ± 0.016 | 0.937 ± 0.016 | 0.941 ± 0.012 | 0.958 ± 0.015 | 0.933 ± 0.013 | 0.963 ± 0.033 | 0.9447 ± 0.006 | 0.992 ± 0.012 | 0.929 ± 0.033 | 0.879 ± 0.048 | 0.662 ± 0.015 | 0.63 ± 0.041 | 0.576 ± 0.02 | 0.572 ± 0.018
MDAMB134 BREAST | 0.624 ± 0.088 | 0.701 ± 0.076 | 0.715 ± 0.014 | 0.78 ± 0.25 | 0.754 ± 0.09 | 0.9355 ± 0.0021 | 0.726 ± 0.076 | 0.76 ± 0.054 | 1.04 ± 0.28 | 1.04 ± 0.088 | 1.01 ± 0.083 | 0.922 ± 0.078 | 0.973 ± 0.14 | 0.899 ± 0.089 | 1.04 ± 0.028 | 1.05 ± 0.17
SG32 HEADNECK | 0.341 ± 0.11 | 0.617 ± 0.029 | 0.494 ± 0.06 | 0.742 ± 0.094 | 0.366 ± 0.042 | 0.804 ± 0.079 | 0.623 ± 0.16 | 0.821 ± 0.035 | 0.915 ± 0.25 | 1 ± 0.15 | 0.925 ± 0.2 | 0.938 ± 0.083 | 1.04 ± 0.031 | 0.946 ± 0.032 | 0.968 ± 0.3 | 0.659 ± 0.056
HCC70 BREAST | 1.02 ± 0.06 | 0.984 ± 0.14 | 1.04 ± 0.034 | 1.02 ± 0.034 | 1.03 ± 0.068 | 1.03 ± 0.091 | 1.03 ± 0.12 | 0.963 ± 0.082 | 1.03 ± 0.11 | 1.12 ± 0.082 | 1.16 ± 0.045 | 1.14 ± 0.07 | 1.1 ± 0.091 | 1.15 ± 0.018 | 1.03 ± 0.098 | 0.946 ± 0.093
SIHA CERVIX | 0.908 ± 0.016 | 0.877 ± 0.034 | 0.909 ± 0.041 | 0.995 ± 0.034 | 0.993 ± 0.022 | 1.07 ± 0.068 | 1.06 ± 0.041 | 1.09 ± 0.055 | 1.06 ± 0.037 | 1.08 ± 0.05 | 1.11 ± 0.066 | 0.985 ± 0.025 | 0.839 ± 0.079 | 0.895 ± 0.054 | 0.786 ± 0.06 | 0.785 ± 0.052
HSSYII SYNOVIAL | 0.231 ± 0.018 | 0.844 ± 0.038 | 0.694 ± 0.065 | 0.838 ± 0.03 | 0.385 ± 0.0033 | 0.9 ± 0.026 | 0.827 ± 0.016 | 0.987 ± 0.046 | 0.872 ± 0.069 | 0.813 ± 0.031 | 0.606 ± 0.04 | 0.434 ± 0.0065 | 0.295 ± 0.015 | 0.302 ± 0.0015 | 0.259 ± 0.0075 | 0.24 ± 0.013
CADOES1 SOFT TISSUE | 0.944 ± 0.025 | 0.935 ± 0.063 | 0.915 ± 0.051 | 0.933 ± 0.075 | 0.999 ± 0.14 | 0.869 ± 0.034 | 0.939 ± 0.075 | 1 ± 0.049 | 0.988 ± 0.032 | 1.02 ± 0.097 | 0.977 ± 0.1 | 0.973 ± 0.046 | 0.912 ± 0.085 | 0.955 ± 0.017 | 1.09 ± 0.11 | 0.992 ± 0.11
ZR751 BREAST | 0.774 ± 0.021 | 0.834 ± 0.051 | 0.768 ± 0.062 | 0.811 ± 0.078 | 0.783 ± 0.08 | 0.826 ± 0.099 | 0.949 ± 0.086 | 0.947 ± 0.061 | 0.902 ± 0.092 | 0.949 ± 0.095 | 0.838 ± 0.076 | 0.887 ± 0.041 | 0.837 ± 0.15 | 1.01 ± 0.029 | 1.05 ± 0.093 | 0.971 ± 0.059
143B BONE | 0.979 ± 0.03 | 0.972 ± 0.023 | 0.99 ± 0.021 | 0.968 | 0.959 ± 0.061 | 0.986 ± 0.0071 | 0.855 ± 0.13 | 0.996 ± 0.028 | 0.948 ± 0.096 | 1.011 ± 0.0042 | 1.04 ± 0.014 | 1.02 ± 0.067 | 0.921 ± 0.13 | 1.01 ± 0.06 | 0.994 ± 0.04 | 0.974 ± 0.1
